Results published in ChEMBL document CHEMBL1201862, “PubChem BioAssay data set” (2004).
The source made the active and inactive calls.

Columns and labels:
Assay type in all cases: functional
[1] = molecular target: Tyrosine-protein kinase Fyn (Homo sapiens, UniProt P06241)
[2] = molecular target: Serine/threonine-protein kinase PAK 4 (Homo sapiens, UniProt O96013);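 further: value obtained within a kinome profiling panel in which PAK4 was one of the panel members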
[3] = molecular target: Cyclin-dependent kinase 7 (Homo sapiens, UniProt P50613);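 further: value comes from a kinome-wide kinase profiling panel in which CDK7 is one member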
Sequence of Cyclin-dependent kinase 7 (P50613 whole entry): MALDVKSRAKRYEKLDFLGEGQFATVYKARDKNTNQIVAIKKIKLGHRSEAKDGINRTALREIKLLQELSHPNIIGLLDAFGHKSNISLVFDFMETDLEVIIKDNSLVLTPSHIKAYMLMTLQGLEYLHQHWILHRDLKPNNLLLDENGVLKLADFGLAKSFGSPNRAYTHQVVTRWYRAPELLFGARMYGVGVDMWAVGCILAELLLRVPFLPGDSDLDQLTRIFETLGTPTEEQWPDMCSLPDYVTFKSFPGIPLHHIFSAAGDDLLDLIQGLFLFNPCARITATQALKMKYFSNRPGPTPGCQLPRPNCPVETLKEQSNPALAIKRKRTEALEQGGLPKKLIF

[4] = molecular target: Macrophage-stimulating protein receptor (Homo sapiens, UniProt Q04912); assay: Navigating the Kinome. Panel member name: MST1R
[5] = molecular target: Death-associated protein kinase 3 (Homo sapiens, UniProt O43293);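 further: measured as one member of a kinome-wide profiling panel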
[6] = molecular target: G protein-coupled receptor kinase 5 (Homo sapiens, UniProt P34947); assay: Navigating the Kinome. Panel member name: GPRK5
[7] = molecular target: Serine/threonine-protein kinase TAO1 (Homo sapiens, UniProt Q7L7X3)
[8] = molecular target: ALK tyrosine kinase receptor (Homo sapiens, UniProt Q9UM73);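 further: ALK tested as one member of a kinase panel screen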
Sequence of ALK tyrosine kinase receptor (Q9UM73 whole entry): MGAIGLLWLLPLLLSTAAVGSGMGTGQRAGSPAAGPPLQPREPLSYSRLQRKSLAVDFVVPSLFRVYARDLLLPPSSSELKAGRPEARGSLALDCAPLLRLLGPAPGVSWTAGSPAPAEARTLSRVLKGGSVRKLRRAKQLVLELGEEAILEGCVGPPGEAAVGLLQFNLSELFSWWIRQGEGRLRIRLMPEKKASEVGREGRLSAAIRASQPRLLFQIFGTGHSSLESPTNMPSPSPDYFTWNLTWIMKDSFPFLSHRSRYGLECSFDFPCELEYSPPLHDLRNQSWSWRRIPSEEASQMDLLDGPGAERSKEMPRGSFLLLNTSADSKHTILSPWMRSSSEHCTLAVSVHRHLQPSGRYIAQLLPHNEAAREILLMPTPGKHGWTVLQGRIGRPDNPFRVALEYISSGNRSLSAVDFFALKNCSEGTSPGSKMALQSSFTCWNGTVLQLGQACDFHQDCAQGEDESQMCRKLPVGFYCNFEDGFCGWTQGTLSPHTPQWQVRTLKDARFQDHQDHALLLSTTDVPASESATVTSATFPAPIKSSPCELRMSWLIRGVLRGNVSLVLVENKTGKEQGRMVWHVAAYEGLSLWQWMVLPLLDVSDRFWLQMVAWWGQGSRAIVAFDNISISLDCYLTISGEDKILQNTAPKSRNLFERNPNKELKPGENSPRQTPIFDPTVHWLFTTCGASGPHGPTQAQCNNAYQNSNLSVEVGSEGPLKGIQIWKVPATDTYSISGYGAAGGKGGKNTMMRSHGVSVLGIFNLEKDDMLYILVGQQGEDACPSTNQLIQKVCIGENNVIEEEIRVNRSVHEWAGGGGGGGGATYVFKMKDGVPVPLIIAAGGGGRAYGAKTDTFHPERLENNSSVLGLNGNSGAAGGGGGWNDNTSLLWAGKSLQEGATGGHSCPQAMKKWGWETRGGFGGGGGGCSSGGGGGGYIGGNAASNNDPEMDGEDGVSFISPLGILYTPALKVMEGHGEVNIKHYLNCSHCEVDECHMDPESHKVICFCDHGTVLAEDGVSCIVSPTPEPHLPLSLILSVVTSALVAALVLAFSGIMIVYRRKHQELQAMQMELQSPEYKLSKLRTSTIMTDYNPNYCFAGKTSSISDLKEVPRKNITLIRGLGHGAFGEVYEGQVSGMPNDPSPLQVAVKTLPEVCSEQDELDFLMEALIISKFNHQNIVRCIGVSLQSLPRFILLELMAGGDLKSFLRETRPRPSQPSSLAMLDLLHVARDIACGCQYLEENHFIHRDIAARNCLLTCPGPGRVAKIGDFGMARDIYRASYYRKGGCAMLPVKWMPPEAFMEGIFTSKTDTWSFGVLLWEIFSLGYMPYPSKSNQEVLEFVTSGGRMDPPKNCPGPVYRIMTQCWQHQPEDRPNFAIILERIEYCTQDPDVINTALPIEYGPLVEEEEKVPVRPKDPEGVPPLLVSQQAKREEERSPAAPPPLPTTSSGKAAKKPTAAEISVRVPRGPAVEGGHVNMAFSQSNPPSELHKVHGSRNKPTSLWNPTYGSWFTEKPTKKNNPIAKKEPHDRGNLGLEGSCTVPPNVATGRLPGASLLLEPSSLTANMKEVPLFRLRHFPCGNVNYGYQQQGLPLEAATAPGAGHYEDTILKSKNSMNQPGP

[9] = molecular target: Glycogen synthase kinase-3 alpha (Homo sapiens, UniProt P49840);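 further: GSK3A result taken from a broad kinome-wide kinase panel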
Sequence of Glycogen synthase kinase-3 alpha (P49840 whole entry): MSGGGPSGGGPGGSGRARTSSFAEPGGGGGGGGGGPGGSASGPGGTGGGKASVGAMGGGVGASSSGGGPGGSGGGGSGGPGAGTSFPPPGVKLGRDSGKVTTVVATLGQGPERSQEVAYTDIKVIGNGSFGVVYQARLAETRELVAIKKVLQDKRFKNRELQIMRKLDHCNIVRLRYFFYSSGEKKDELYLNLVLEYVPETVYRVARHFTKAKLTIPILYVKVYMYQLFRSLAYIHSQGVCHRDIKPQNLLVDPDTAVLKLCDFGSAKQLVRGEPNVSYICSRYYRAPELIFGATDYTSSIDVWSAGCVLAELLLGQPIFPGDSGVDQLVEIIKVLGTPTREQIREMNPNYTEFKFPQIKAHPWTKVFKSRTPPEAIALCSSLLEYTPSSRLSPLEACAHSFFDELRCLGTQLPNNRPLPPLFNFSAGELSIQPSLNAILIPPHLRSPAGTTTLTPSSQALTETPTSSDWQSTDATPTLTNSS

[10] = molecular target: Calcium/calmodulin-dependent protein kinase type II subunit alpha (Homo sapiens, UniProt Q9UQM7); assay: Navigating the Kinome. Panel member name: CAMK2A
[11] = molecular target: Mitogen-activated protein kinase kinase kinase kinase 4 (Homo sapiens, UniProt O95819)
Sequence of Mitogen-activated protein kinase kinase kinase kinase 4 (O95819 whole entry): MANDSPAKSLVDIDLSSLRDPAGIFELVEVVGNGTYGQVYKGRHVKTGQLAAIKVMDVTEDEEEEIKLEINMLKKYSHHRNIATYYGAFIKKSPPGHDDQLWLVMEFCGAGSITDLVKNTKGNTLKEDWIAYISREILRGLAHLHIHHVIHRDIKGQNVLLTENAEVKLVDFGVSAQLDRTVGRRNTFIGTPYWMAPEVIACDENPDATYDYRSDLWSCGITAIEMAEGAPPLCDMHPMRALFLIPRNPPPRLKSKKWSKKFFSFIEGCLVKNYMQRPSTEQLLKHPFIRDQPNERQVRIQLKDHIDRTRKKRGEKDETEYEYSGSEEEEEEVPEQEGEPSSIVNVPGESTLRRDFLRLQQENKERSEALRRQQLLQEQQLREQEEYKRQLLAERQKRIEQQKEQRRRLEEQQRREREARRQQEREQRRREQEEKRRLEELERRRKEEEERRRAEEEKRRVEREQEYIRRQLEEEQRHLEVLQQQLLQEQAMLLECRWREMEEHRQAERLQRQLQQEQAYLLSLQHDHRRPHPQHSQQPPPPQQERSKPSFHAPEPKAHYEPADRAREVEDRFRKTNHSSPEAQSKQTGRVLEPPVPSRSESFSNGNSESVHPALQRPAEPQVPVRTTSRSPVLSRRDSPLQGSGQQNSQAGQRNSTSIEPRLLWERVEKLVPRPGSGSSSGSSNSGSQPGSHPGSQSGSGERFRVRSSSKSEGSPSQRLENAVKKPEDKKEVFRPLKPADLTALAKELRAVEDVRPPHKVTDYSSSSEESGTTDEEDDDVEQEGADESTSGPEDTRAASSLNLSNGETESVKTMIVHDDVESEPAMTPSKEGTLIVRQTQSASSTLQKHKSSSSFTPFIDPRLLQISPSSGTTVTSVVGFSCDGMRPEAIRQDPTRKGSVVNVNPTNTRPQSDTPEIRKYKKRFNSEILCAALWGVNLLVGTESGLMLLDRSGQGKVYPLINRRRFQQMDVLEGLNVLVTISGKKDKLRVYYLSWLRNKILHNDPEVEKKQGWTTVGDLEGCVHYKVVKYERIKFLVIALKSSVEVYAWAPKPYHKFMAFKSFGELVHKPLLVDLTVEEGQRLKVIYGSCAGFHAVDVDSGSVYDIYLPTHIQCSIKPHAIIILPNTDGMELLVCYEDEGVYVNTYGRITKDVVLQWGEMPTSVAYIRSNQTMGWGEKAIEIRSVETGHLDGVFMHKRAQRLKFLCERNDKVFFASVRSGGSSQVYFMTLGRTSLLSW

[12] = molecular target: Serine/threonine-protein kinase pim-1 (Homo sapiens, UniProt P11309)
Sequence of Serine/threonine-protein kinase pim-1 (P11309 whole entry): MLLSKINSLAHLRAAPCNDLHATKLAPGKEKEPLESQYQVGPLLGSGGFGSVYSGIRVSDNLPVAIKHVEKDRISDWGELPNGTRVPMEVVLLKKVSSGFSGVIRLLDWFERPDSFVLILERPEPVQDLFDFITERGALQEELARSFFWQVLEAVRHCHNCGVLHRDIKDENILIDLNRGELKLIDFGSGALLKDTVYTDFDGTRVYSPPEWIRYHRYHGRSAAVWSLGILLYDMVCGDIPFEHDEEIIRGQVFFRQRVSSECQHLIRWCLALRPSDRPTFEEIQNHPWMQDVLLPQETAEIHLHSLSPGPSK

Activin receptor type-1 = Activin receptor type-1 (Homo sapiens, UniProt Q04771); assay: Navigating the Kinome. Panel member name: ACVR1
Sequence of Activin receptor type-1 (Q04771 whole entry): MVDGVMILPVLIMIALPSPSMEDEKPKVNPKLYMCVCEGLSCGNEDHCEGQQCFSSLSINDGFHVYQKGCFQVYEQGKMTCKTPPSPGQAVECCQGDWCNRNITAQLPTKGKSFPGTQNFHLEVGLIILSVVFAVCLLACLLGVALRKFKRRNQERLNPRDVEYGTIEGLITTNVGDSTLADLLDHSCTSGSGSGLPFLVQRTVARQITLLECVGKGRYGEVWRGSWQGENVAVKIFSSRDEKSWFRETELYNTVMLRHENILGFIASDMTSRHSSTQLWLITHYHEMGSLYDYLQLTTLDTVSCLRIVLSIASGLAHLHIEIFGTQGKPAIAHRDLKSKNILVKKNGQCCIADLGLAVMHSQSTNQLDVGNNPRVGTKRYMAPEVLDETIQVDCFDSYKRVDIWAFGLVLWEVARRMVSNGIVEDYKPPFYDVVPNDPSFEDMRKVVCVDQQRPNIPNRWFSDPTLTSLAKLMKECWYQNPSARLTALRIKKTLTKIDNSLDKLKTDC

[13] = molecular target: Mitogen-activated protein kinase 8 (Homo sapiens, UniProt P45983);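 further: value comes from one member of a kinome-wide kinase profiling panel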
[14] = molecular target: Tyrosine-protein kinase JAK3 (Homo sapiens, UniProt P52333)
[15] = molecular target: Glycogen synthase kinase-3 beta (Homo sapiens, UniProt P49841);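 further: value comes from a broad kinome profiling panel, with GSK3B as the panel member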
Sequence of Glycogen synthase kinase-3 beta (P49841 whole entry): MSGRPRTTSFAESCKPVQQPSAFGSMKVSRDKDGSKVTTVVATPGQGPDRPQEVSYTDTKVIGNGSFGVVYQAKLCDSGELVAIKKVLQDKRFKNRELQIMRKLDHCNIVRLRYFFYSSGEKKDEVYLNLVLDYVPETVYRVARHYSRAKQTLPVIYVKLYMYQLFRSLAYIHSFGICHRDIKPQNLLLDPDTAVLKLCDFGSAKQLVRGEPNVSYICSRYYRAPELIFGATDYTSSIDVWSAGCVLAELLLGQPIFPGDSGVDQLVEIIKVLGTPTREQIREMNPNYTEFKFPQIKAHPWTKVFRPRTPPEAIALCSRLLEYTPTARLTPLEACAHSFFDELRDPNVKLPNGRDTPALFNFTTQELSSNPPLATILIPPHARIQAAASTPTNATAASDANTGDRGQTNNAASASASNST

[16] = molecular target: Cyclin-dependent kinase 9 (Homo sapiens, UniProt P50750);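 further: value from the CDK9 entry of a kinome-spanning kinase panel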
[17] = molecular target: Cell division cycle 7-related protein kinase (Homo sapiens, UniProt O00311);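 further: value obtained from a kinome-wide kinase panel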
[18] = molecular target: Homeodomain-interacting protein kinase 2 (Homo sapiens, UniProt Q9H2X6);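 further: measured within a kinome-wide kinase profiling panel, HIPK2 being one panel member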
[19] = molecular target: cAMP-dependent protein kinase catalytic subunit alpha (Homo sapiens, UniProt P17612)
[20] = molecular target: T1, Interleukin-1 receptor-associated kinase 4 (Homo sapiens, UniProt Q9NWZ3)
T1 sequence (Q9NWZ3 whole entry): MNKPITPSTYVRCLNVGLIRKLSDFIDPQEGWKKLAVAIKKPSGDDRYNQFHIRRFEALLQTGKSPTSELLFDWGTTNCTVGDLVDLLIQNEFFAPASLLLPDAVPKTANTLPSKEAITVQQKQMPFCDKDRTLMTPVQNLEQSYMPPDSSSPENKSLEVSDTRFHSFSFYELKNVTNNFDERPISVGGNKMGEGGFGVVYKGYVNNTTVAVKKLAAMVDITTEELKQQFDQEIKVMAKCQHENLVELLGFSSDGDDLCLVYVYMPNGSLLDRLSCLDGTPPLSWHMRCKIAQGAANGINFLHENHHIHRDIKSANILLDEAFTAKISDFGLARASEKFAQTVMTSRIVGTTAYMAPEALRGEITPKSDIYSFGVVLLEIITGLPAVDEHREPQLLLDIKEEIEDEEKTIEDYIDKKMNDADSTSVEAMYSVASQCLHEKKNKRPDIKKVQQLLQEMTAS

## CN(C)c1ccc(NC(=O)CC2Nc3ccccc3NC2=O)cc1 (stereo not drawn)
[1]
  Ki: > 6.31 µM (inactive)
[2]
  Ki: > 5.01 µM (inactive)
[3]
  Ki: > 3.98 µM (inactive)
[4]
  Ki: 0.398 µM (active)
[5]
  Ki: > 5.01 µM (inactive)
[6]
  Ki: > 3.98 µM (inactive)
[7]
  Ki: > 6.31 µM (inactive)
[8]
  Ki: > 6.31 µM (inactive)
[9]
  Ki: > 3.98 µM (inactive)
[10]
  Ki: > 3.98 µM (inactive)
[11]
  Ki: > 5.01 µM (inactive)
[12]
  Ki: > 6.31 µM (inactive)
Activin receptor type-1
  Ki: > 3.98 µM (inactive)
[13]
  Ki: > 5.01 µM (inactive)
[14]
  Ki: > 5.01 µM (inactive)

## COCCNc1cc(-c2c[nH]c3ncccc23)cc(Cl)n1
[15]
  Ki: 0.126 µM (active)
[16]
  Ki: 0.2 µM (active)
[17]
  Ki: 0.002 µM (active)
[3]
  Ki: 0.158 µM (active)
[18]
  Ki: 0.0631 µM (active)
[12]
  Ki: 0.794 µM (active)
[19]
  Ki: 0.158 µM (active)
[20]
  Ki: 3.98 µM (active)
